Experimental findings from ChEMBL document CHEMBL1201862, “PubChem BioAssay data set” (2004) are described below.

Broadly, the AC50 is the concentration at which the activity in the assay is half-maximal. The term CC50 denotes the concentration giving 50% cytotoxicity.

Assay [1] addresses T1, Corticotropin-releasing factor receptor 2/Corticotropin-releasing factor-binding protein (Homo sapiens, UniProt P24387+Q13324).
T1 sequence (Q13324 whole entry): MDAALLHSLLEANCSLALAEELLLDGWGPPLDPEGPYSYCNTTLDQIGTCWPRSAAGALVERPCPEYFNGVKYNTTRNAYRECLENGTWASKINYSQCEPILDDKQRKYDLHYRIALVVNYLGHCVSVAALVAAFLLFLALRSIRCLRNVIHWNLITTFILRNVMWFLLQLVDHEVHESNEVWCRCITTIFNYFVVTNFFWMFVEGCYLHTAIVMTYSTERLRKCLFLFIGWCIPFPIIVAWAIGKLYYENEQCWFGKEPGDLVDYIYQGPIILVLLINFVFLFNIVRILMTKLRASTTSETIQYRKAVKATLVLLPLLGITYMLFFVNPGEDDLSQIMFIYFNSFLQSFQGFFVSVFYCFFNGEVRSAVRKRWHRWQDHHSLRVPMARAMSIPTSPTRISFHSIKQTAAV
T1 sequence (P24387 whole entry): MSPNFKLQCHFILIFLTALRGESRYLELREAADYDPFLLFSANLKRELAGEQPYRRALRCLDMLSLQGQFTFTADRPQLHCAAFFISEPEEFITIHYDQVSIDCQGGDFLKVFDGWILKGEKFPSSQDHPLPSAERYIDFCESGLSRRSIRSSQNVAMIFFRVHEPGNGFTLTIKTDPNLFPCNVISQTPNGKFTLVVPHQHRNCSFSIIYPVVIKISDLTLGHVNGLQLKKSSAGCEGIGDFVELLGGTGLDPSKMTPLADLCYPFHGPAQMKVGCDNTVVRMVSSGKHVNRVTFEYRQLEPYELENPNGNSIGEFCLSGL
In words: activators of CRF receptor 2 with binding protein – uHTS hits, confirmation (AID 602473). The class given is functional. Particulars: read-out: EC50_Mean.

The target of assay [2] is T1, Corticotropin-releasing factor receptor 2/Corticotropin-releasing factor-binding protein. As to the kind of experiment: Dose Response confirmation of uHTS hits for small molecule antagonists of the CRF-binding protein and CRF-R2 receptor complex. The class given is functional. Particulars: read-out: IC50_Mean.
Assay [3] is described as follows: fluconazole-exposed Candida albicans growth modulators – fluorescence, retest, confirmation (AID 2467). The class given is functional, cell-based.
Assay [4] concerns the target T2, Rac GTPase-activating protein 1 (Homo sapiens, UniProt Q9H0H5).
T2 sequence (Q9H0H5 whole entry): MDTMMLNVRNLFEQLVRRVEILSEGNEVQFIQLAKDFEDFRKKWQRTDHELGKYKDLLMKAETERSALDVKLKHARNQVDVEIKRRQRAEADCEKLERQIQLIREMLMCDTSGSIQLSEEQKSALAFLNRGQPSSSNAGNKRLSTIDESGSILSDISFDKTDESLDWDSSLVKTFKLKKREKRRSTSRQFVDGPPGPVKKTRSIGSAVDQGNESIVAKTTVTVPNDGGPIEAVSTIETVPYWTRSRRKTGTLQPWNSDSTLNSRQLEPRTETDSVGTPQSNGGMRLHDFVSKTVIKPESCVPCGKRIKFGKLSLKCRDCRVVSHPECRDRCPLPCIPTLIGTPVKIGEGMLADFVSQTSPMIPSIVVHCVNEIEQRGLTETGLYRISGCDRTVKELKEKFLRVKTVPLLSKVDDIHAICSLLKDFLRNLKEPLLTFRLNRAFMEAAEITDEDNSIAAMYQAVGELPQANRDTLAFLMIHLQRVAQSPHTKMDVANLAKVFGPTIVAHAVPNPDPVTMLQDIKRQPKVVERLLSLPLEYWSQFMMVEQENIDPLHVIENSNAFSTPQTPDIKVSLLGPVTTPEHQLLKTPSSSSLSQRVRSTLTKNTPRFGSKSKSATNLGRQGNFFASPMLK
As to the kind of experiment: blockers of MgcRacGAP-driven Rac1 GTP hydrolysis – biochemical, ADP Hunter fluorescence, primary and confirmatory, confirmation (AID 624330). The class given is functional.

Assay [5] in a line: NIH-3T3 fibroblast cytotoxicity, dose response, cytotoxicity control, cell-based, fluorescence, Alamar Blue, secondary assay (AID 2327).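 Also: NIH-3T3 mouse fibroblasts cultured with fluconazole at 8 µg/mL.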 The class given is functional.
Assay [6] in a line: Trypanosoma cruzi growth suppression in host cells – NIH3T3 host cells, beta-gal luminescence, confirmation (AID 2044).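 Also: intracellular parasites grown in NIH/3T3 mouse fibroblasts as host cells; luminescent beta-galactosidase reporter signal from transgenic T. cruzi replicating inside host cells; inhibitors lower the luminescence signal.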 The class given is functional, cell-based.
Assay [7] is described as follows: NIH3T3 cell viability loss – ATP luminescence, mouse fibroblasts, counter-screen, dose response (AID 2010).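 Also: cells exposed to compound for about 90 hours before reading.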 The class given is functional, cell-based. For orientation: Counterscreens check selectivity or assay interference.
The nature of assay [8]: Luminescence Cell-Based Dose Response HTS to Identify Activators of Luciferase Translation or Activity in H4 […] Cells. [Related pubchem assays: 1829 (Project Summary), 1814 (Primary HTS)]. The class given is functional.
In assay [9] the test system is H4. In words: Luminescence Cell-Based Dose Response HTS to Identify Activators of 5'UTR Stem-Loop Driven Prion Protein mRNA Translation in H4 Neuroglioblastoma Cells. [Related pubchem assays: 1829 (Project Summary), 1814 (Primary HTS)]. The class given is functional. Particulars: Homo sapiens.
Assay [10] deals with Streptococcus. In words: GAS UMAA2166 growth inhibition – luminescence, BacTiterGlo, counter-screen for streptokinase expression inhibitor project, dose response (AID 1915).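 Also: potency for reduction of bacterial viability or growth.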 The class given is functional, organism-based.
Assay [11] relates to Streptococcus sp. 'group A'. In words: Streptococcus pyogenes SK(-)GAS viability under kanamycin – luminescence, BacTiterGlo, confirmation, counter-screen for streptokinase expression inhibitor project, dose response (AID 1900). The class given is functional, organism-based.
In assay [12] the target is T3, Cytochrome P450 1A2 (Homo sapiens, UniProt P05177).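 Also: PubChem cytochrome P450 panel assay, CYP1A2 panel member.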
T3 sequence (P05177 whole entry): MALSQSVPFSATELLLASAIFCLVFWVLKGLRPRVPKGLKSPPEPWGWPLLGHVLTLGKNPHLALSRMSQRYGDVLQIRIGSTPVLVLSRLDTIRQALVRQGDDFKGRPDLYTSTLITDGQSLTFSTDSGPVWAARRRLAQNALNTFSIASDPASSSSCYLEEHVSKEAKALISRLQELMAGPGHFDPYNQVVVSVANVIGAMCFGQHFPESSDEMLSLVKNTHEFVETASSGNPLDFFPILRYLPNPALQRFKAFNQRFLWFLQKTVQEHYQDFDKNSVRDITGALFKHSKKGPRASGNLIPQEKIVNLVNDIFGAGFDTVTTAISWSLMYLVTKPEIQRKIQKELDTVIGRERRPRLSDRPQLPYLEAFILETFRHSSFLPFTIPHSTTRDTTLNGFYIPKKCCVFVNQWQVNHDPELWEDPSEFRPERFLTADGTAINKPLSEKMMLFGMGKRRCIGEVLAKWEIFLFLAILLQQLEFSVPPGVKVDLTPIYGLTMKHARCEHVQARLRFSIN

Assay [13] concerns the target Cytochrome P450 2D6 (Homo sapiens, UniProt P10635).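 Also: CYP2D6 member of a cytochrome P450 panel assay.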
Assay [14] is described as follows: viability of uninfected HEp-2 cells – cell-based, HTS, cytotoxicity control for RSV inhibitor project, dose response (AID 2410). The class given is functional. As to conditions: human respiratory syncytial virus.
Assay [15] has as its target Cytochrome P450 3A4 (Homo sapiens, UniProt P08684).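 Also: CYP3A4 tested as one member of a cytochrome P450 panel screen.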

Active and inactive are the calls of the source. Rule as the data show it, for most assays here: actives have a measured EC50 and inactives only a lower limit. Some results are limits rather than exact numbers.

Chain of Cytochrome P450 3A4 (P08684 whole entry): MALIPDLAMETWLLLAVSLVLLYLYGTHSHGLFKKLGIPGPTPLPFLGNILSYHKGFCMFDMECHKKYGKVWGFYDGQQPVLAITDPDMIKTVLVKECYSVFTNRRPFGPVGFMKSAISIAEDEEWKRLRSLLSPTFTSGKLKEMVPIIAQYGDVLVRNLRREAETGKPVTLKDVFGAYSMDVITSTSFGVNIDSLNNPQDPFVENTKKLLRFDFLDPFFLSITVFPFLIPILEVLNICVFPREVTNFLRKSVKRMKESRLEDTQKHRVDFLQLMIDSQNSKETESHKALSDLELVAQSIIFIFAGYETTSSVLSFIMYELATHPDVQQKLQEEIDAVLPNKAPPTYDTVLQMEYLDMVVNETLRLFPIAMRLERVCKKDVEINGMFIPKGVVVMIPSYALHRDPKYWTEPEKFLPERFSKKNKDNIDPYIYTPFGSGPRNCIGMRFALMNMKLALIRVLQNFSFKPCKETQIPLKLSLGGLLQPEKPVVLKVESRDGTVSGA
Chain of Cytochrome P450 2D6 (P10635 whole entry): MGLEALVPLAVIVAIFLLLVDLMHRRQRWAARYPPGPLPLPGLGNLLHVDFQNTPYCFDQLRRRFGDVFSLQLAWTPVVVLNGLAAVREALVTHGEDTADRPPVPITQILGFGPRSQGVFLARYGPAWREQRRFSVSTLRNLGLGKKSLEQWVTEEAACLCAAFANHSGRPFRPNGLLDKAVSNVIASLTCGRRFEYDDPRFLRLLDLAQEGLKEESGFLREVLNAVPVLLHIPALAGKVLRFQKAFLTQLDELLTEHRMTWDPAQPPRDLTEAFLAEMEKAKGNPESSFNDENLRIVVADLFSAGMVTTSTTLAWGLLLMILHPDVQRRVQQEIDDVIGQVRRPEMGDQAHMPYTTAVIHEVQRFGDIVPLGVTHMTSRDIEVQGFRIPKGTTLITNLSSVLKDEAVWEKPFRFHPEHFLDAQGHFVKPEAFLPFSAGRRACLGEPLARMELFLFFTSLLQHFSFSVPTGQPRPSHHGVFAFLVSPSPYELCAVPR

As for `O=C1NCCCCC1NS(=O)(=O)c1cccc2ccccc12` (stereo not given), in assay [1], the EC50 was > 53 µM (inactive). For the same compound, the IC50 in assay [2] is > 47.1 µM (inactive).
The like results for `CNS(=O)(=O)c1cccc(C(=O)NCC(c2ccco2)N(C)C)c1` (stereo not given) were, in that order, > 53 µM (inactive) and > 47.1 µM (inactive).
Consider `Sc1nnc(-c2cccs2)n1/N=C/c1cccs1`, for which the figures for the EC50 in [3] and in assay [5] were 1.93 µM (active) and > 150 µM (inactive), respectively. Further, the IC50 in assay [4] is 126 µM (active).
`CCN(c1ccccc1)S(=O)(=O)c1ccc(C(=O)Nc2nnc(C3CC3)o2)cc1`: the EC50 is 2.16 µM (active) in [6], 2.19 µM (active) in assay [3], 3.71 µM (active) in assay [7] and > 160 µM (inactive) in [5].
`COc1cc(/C=N/NC(=O)CCc2nnc(O)nc2O)ccc1O`: the IC50 in assay [4] is 32.5 µM (active).
Take `COc1ccc(CCC(=O)N2CC(C)OC(C)C2)cc1` (stereo not given): the EC50 in assay [3] is > 38 µM (not active); in assay [5], > 150 µM (inactive).
For `CCc1ccc(OCCOCCN2CCN(C)CC2)cc1`, the IC50 in assay [4] is 89.4 µM (active).
For the compound `CCc1ccc2[nH]c(C(=O)Nc3ccc4c(c3)OCO4)cc2c1`, the EC50 in [1] is > 53 µM (inactive). In addition, the IC50 in assay [2] is > 47.1 µM (inactive).
Turning to `O=C(NCCS(=O)(=O)c1ccc(Br)cc1)c1ccccc1Cl`, the EC50 in assay [1] was > 53 µM (inactive). In assay [2], the IC50 is > 47.1 µM (inactive).
As to `O=S(=O)(c1ccc(Cl)s1)N1CCCc2cccc(O)c21`, the EC50 in [8] was 6.05 µM (active); in assay [3], > 38 µM (not active); in assay [9], 45.3 µM (active); in [5], 21.4 µM (active).
Consider `Cc1cc(C)nc(NS(=O)(=O)c2ccc(NC(=O)COc3ccccc3)cc2)n1`, for which the EC50 in assay [3] was > 38 µM (not active); in assay [5], > 150 µM (inactive).
As for `COc1ccc(C(=O)NC(=S)NNC(=O)c2ccccc2O)cc1`, the EC50 in assay [10] is 8.79 µM (active); in [1] it was > 53 µM (inactive); in assay [11] it was 2.7 µM (active).
For the compound `COc1ccc(CN2CCN(Cc3cccc(F)c3)CC2)cc1OC`, the IC50 in assay [4] was 83 µM (active).
Turning to `CCOc1ccc(-c2cc(C(=O)N/N=C(\C)c3cccnc3)c3ccccc3n2)cc1`, in assay [9], the EC50 was 84.3 µM (inconclusive).
Regarding `COc1cc(/C=N/NC(=O)c2ccc(-n3cccc3)cc2)ccc1O`, the IC50 in assay [4] was 23.9 µM (active).
For the compound `CCOc1ccccc1-n1c(C)nc2cc(C(=O)O)ccc21`, in assay [1], the EC50 was > 53 µM (inactive). For the same compound, the IC50 in [2] was > 47.1 µM (inactive).
The like results for `COc1cc(C(=O)NC2CC(C)(C)Cc3c2cnn3-c2ccccc2)cc(OC)c1OC` (stereo not given) were, in that order, > 53 µM (inactive) and > 47.1 µM (inactive).
As to `COc1ccc2c(c1)c(/C=C/c1cc[n+](C)cc1)cn2C`, the EC50 in [3] is 2.23 µM (active); in [5] it was > 160 µM (inactive).
For the compound `COc1cc(/C=C/C(=O)OCC(=O)Nc2ccc(S(=O)(=O)N3CCCC3)cc2)ccc1O`, the IC50 in [4] was 60 µM (active).
`CCc1cccc(NC(=S)N(CCCN2CCOCC2)C(C)c2cc3cccc(OC)c3o2)c1` (stereo not given): the EC50 in assay [1] is > 53 µM (inactive). In assay [2], the IC50 was > 47.1 µM (inactive).
Taken in the same sequence, the figures for `COc1ccc(C(=O)N(c2ccccc2)C2C=CS(=O)(=O)C2)cc1` (stereo not given) were > 53 µM (inactive) and > 47.1 µM (inactive).
`O=Nc1c(O)n(Cc2cccc(Cl)c2)c2ccccc12`: the AC50 in assay [12] was 25.1 µM (inconclusive); in assay [13], 22.4 µM (inconclusive); in [15], 39.8 µM (inconclusive). The EC50 was 2.99 µM (active) in assay [3] and > 150 µM (inactive) in [5]. Besides, the CC50 in assay [14] is 11.7 µM (active).
`Nc1c2c(nc3sc4c(c13)CCCCC4)CCCCC2`: the EC50 in assay [3] was 3.83 µM (active); in assay [5] it was > 160 µM (inconclusive).
As for `CC(=C/c1ccccc1)/C=N/n1c(S)nnc1-c1ccco1`, in assay [4], the IC50 is 86.4 µM (active).
On the same count and under the same terms, the same measure for `COc1cccc(C(=O)N2CCN(C3CCN(Cc4ccccc4)CC3)CC2)c1OC`: 120 µM (active).
For `O=C(COc1ccc(Cl)cc1Cl)NNC(=S)NC(=O)c1ccco1`, the EC50 in assay [10] was 1.57 µM (active); in [11] it was 0.309 µM (active).
As for `CCc1nnc(N/N=C/c2c(C)[nH]c3ccccc23)n1N`, the IC50 in assay [4] was 51.7 µM (active).
Consider `COc1ccc(NCCC#N)cc1`, for which the IC50 in [4] was 79.1 µM (active).
Regarding `COc1ccccc1OCCCCCCN1CCOCC1`, in assay [4], the IC50 is 184 µM (active).
The same measure, in the same setting: under `O=C(Cn1c(C(=O)NCC2CCCO2)cc2sccc21)c1ccccc1` (stereo not given) stands 102 µM (active).
With `Cc1ccc(-n2nc(C)c(Sc3ccccc3[N+](=O)[O-])c2N)cc1`, in [1], the EC50 is > 53 µM (inactive). Further, the IC50 in [2] is > 47.1 µM (inactive).
For the compound `O=C(NCCc1c[nH]c2ccccc12)c1cnc2sccn2c1=O`, the EC50 in assay [8] is 53 µM (active); in assay [9] it was 54.8 µM (inconclusive).
On to `CC(=O)Cc1nsc(Nc2ccc(Cl)cc2)n1`, for which the EC50 in [3] was > 38 µM (not active); in assay [5] it was > 160 µM (inactive).
Taken in the same sequence, the figures for `O=C(Cc1ccc(O)cc1)N/N=C/c1cccnc1` were > 38 µM (not active) and > 160 µM (inactive).
On to `O=C1C(/C=N/c2ccc(F)cc2)=C(O)c2ccccc21`, for which the EC50 was 0.173 µM (active) in assay [8] and 0.38 µM (active) in assay [9].
In the case of `CSc1ccc(CNC(=O)Cc2ccc(NC(=O)C3=C(C)OCCS3)cc2)cc1`, the EC50 in [8] is 1.92 µM (active).
With `COc1ccc(/C=N/c2ccc3[nH]ncc3c2)c(O)c1`, the IC50 in assay [4] is 35.3 µM (active).
